From patent publication US7417036B2, “Crystal form of adefovir dipivoxil and its preparation” (Tianjin Kinsly Pharmaceutical Co. Ltd., priority 2002, dated 2008)
Values joined by “and” are separate entries in the source; they are usually repeats but may differ in a detail not shown here. Equal entries are not always repeated.

Assay: Kinetic studies of the plasma concentration in animals with different crystalline forms of AD (oral, monkeys; adefovir measured in serum by HPLC)
Type: in vivo, Macaques
Description: The experiment was carried out by orally administering to monkeys the drugs in order to investigate the in vivo absorption of two crystalline forms of AD: the novel crystalline AD of the present invention produced by Tianjin Kinsly pharmaceutical R & D Co. Ltd. and crystalline form I of AD prepared according to the method of GILEAD SCIENCES INC. The experiment provides useful clinical references for the application of novel crystalline AD.
Tablets of novel crystalline form of AD, white, each of which contains 10 mg of adefovir, Tianjin Kinsly pharmaceutical R&D Co. Ltd., batch number 020320.
Tablets of AD crystalline form I, white, each of which contains 10 mg of adefovir, Tianjin Kinsly pharmaceutical R&D Co. Ltd., batch number 020225.
Macaques, weighing from 5 kg to 8 kg (certificate No: 2001-03, approved by Beijing Forestry Administration in the document of [2001] 83) were provided by Xie'er Animal Health Caring Science and Technology Co. Ltd (Beijing, P. R. China).
As the pro-drug of adefovir, AD is the bis-pivaloyloxymethyl ester of adefovir, which increases the in vivo bioavailability of orally administered adefovir. AD can be rapidly metabolized into PMEA, rendering it undetectable in blood. Thus the concentration of its parent compound was measured.
Mobile phase: 0.2% phosphoric acid-methanol-B7 (97:3:0.5) degassed and filtrated through 0.45 μm milipore filter.
Stationary phase: C18-column (4.6×250 mm) packed with 5μ fillers, Tianjin Tianhe Chromatogram Inc, the column temperature from 18° C. to 22° C.
Detection: the UV detection wavelength λ=260 nm (0.01AUFS)
A given volume of serum was taken and an equal volume of 10% trichloroacetic acid was added. The mixture was shaken thoroughly and kept still for more than 30 min to precipitate the proteins, then centrifuged at 10000 rpm for 2 min. The precipitates were separated and 30 μL of the supernat was removed for injection.
The experiment was started one week after intestinal worms were dispelled from the animals. Eight animals were randomly assigned into two groups, each consisting of four animals. The animals were fasted for 12 h and were orally administered the novel crystalline form of AD for one group or crystalline form I of AD for another group at a dose of 20 mg/kg together with 200 ml of water. 2 hours after administration, the animals were fed in a fixed quantity. 2.0 ml samples of whole blood were collected from the elbow veins before administration and 10, 20, 30, 45 min and 1, 2, 4, 6, 8, 12, and 24 h after administration. The serum was separated and freeze-stored for measurement. A cross-experiment was done similarly 2 weeks later.
The pharmacokinetic parameters were calculated based on the plasma concentrations at different time points. The time to peak concentration (Tpeak) and the maximum concentration (Cmax) used the measured value. The terminal phase elimination rate constant (Ke) was obtained by fitting the linear section of the curve of logarithm of the plasma concentration of drug in terminal phase versus time and the terminal phase clearance half life time (T1/2) was calculated by dividing 0.693 by Ke. AUC0-t was calculated according to the trapezoid rule.
Apparent volume of distribution (Vd)=dosage/(AUCXKe);
Total Clearance (CL)=dosage/AUC.
Comparison of the data of the two crystalline form: Data of Cmax, Ke, T1/2 and AUC0-t were statistically processed by t test, while Tpeak was processed by non-parametric test. In addition, Comparison of bio-equivalence was carried out based on Cmax and AUC0-t by using two one-sided t test.
Eight macaques were assigned into two groups, group for the novel crystalline form and the group for crystalline form I. The animals were administered according to an open randomized crossover scheme. Afterward, adefovir concentrations in serum were measured at the predetermined time points. […]

[1] = adefovir, oral 20 mg/kg, macaques, average of 8 animals (ASD row)
[2] = adefovir, oral 20 mg/kg, macaques, individual animal No. 1-8, listed as Crystalline form I, 20 mg/kg

SMILES: CC(C)(C)C(=O)OCOP(=O)(COCCn1cnc2c(N)ncnc21)OCOC(=O)C(C)(C)C [crystalline form I, reference compound]
- Adefovir concentrations in serum (Plasma concentrations versus time), average (0.167 h after oral administration, 20 mg/kg, macaques, average of 8 animals (ASD row)): 77.0 ng/mL
- Adefovir concentrations in serum (Plasma concentrations versus time) (0.167 h after oral administration, 20 mg/kg, macaques, individual animal No. 1-8, 20 mg/kg): 66.6 ng/mL and 90.1 ng/mL
- Adefovir concentrations in serum (Plasma concentrations versus time), average (0.333 h after oral administration, 20 mg/kg, macaques, average of 8 animals (ASD row)): 235.4 ng/mL
- Adefovir concentrations in serum (Plasma concentrations versus time) (0.333 h after oral administration, 20 mg/kg, macaques, individual animal No. 1-8, 20 mg/kg): 148.0 ng/mL
- Adefovir concentrations in serum (Plasma concentrations versus time), average (0.5 h after oral administration, 20 mg/kg, macaques, average of 8 animals (ASD row)): 546.7 ng/mL
- Adefovir concentrations in serum (Plasma concentrations versus time) (0.5 h after oral administration, 20 mg/kg, macaques, individual animal No. 1-8, 20 mg/kg): 397.9 ng/mL
- Adefovir concentrations in serum (Plasma concentrations versus time), average (0.75 h after oral administration, 20 mg/kg, macaques, average of 8 animals (ASD row)): 350.9 ng/mL
- Adefovir concentrations in serum (Plasma concentrations versus time) (0.75 h after oral administration, 20 mg/kg, macaques, individual animal No. 1-8, 20 mg/kg): 305.2 ng/mL
- Adefovir concentrations in serum (Plasma concentrations versus time), average (1 h after oral administration, 20 mg/kg, macaques, average of 8 animals (ASD row)): 285.2 ng/mL
- Adefovir concentrations in serum (Plasma concentrations versus time) (1 h after oral administration, 20 mg/kg, macaques, individual animal No. 1-8, 20 mg/kg): 196.6 ng/mL
- Adefovir concentrations in serum (Plasma concentrations versus time), average (2 h after oral administration, 20 mg/kg, macaques, average of 8 animals (ASD row)): 230.5 ng/mL
- Adefovir concentrations in serum (Plasma concentrations versus time) (2 h after oral administration, 20 mg/kg, macaques, individual animal No. 1-8, 20 mg/kg): 161.3 ng/mL
- Adefovir concentrations in serum (Plasma concentrations versus time), average (4 h after oral administration, 20 mg/kg, macaques, average of 8 animals (ASD row)): 177.5 ng/mL
- Adefovir concentrations in serum (Plasma concentrations versus time) (4 h after oral administration, 20 mg/kg, macaques, individual animal No. 1-8, 20 mg/kg): 89.3 ng/mL
- Adefovir concentrations in serum (Plasma concentrations versus time), average (6 h after oral administration, 20 mg/kg, macaques, average of 8 animals (ASD row)): 146.8 ng/mL
- Adefovir concentrations in serum (Plasma concentrations versus time) (6 h after oral administration, 20 mg/kg, macaques, individual animal No. 1-8, 20 mg/kg): 102.0 ng/mL
- Adefovir concentrations in serum (Plasma concentrations versus time), average (8 h after oral administration, 20 mg/kg, macaques, average of 8 animals (ASD row)): 116.7 ng/mL
- Adefovir concentrations in serum (Plasma concentrations versus time) (8 h after oral administration, 20 mg/kg, macaques, individual animal No. 1-8, 20 mg/kg): 82.9 ng/mL
- Adefovir concentrations in serum (Plasma concentrations versus time), average (12 h after oral administration, 20 mg/kg, macaques, average of 8 animals (ASD row)): 86.0 ng/mL
- Adefovir concentrations in serum (Plasma concentrations versus time) (12 h after oral administration, 20 mg/kg, macaques, individual animal No. 1-8, 20 mg/kg): 70.1 ng/mL and 72.6 ng/mL
- Adefovir concentrations in serum (Plasma concentrations versus time), average (24 h after oral administration, 20 mg/kg, macaques, average of 8 animals (ASD row)): 44.3 ng/mL
- Adefovir concentrations in serum (Plasma concentrations versus time) (24 h after oral administration, 20 mg/kg, macaques, individual animal No. 1-8, 20 mg/kg): 36.8 ng/mL and 56.6 ng/mL
- Vd (adefovir apparent volume of distribution, oral 20 mg/kg, macaques, individual animal No. 1-8, 20 mg/kg): 125.6 L and 107.3 L and 85.8 L and 95.0 L and 145.1 L and 76.6 L and 158.8 L and 99.9 L
- average AUCO-T (adefovir, oral 20 mg/kg): 2723.82 ng·h/mL
- average Tpeak (adefovir, oral 20 mg/kg): 0.53 h
- average apparent volume of distribution (Vc) (adefovir, oral 20 mg/kg): 17.50 L
- average elimination half-life time (adefovir, oral 20 mg/kg): 10.5 h
- average peak concentration (adefovir, oral 20 mg/kg): 551.21 ng/mL
- Cmax, average (adefovir, oral 20 mg/kg, macaques, average of 8 animals): 551.21 ng/mL
- CL, average [1]: 7723.2 mL/h
- Ke, average [1]: 0.072 L/h
- T1/2, average [1]: 10.5 h
- Tpeak, average [1]: 0.53 h
- Vd, average [1]: 117.0 L
- AUC0-t, average (adefovir, oral 20 mg/kg, macaques, average of 8 animals, listed as Crystalline form I, 20 mg/kg): 2723.8 ng·h/mL
- AUC0-t, average (adefovir, oral 20 mg/kg, macaques, average of 8 animals, listed as Form I, 20 mg/kg): 2724 ng·h/mL
- AUC0-t [2]: 2214.1 ng·h/mL and 2624.4 ng·h/mL and 2188.0 ng·h/mL and 3647.5 ng·h/mL and 3379.4 ng·h/mL and 3452.3 ng·h/mL and 2317.8 ng·h/mL and 1967.0 ng·h/mL
- Cmax [2]: 402.2 ng/mL and 785.4 ng/mL and 366.2 ng/mL and 698.1 ng/mL and 915.4 ng/mL and 432.2 ng/mL and 412.3 ng/mL and 397.9 ng/mL
- T1/2 [2]: 9.6 h and 9.8 h and 6.5 h and 12.0 h and 17.0 h and 9.2 h and 12.8 h and 6.8 h
- Tpeak [2]: 0.5 h (7×) and 0.75 h
- Cmax (adefovir, oral 20 mg/kg, macaques, individual animal No. 1-8, listed as Form I, 20 mg/kg): 689.1 ng/mL
